Assay results taken from patent US12421240B2, “Hydropyrazino[1,2-d][1,4]diazepine compounds for the treatment of autoimmune disease” (Hoffmann-La Roche Inc., priority 2019, dated 2025).
pIC50: −log10 of the molar value.

Biological target: T1, human TLR8 (Homo sapiens, UniProt Q9NR97)
T1 sequence (Q9NR97 27-1041): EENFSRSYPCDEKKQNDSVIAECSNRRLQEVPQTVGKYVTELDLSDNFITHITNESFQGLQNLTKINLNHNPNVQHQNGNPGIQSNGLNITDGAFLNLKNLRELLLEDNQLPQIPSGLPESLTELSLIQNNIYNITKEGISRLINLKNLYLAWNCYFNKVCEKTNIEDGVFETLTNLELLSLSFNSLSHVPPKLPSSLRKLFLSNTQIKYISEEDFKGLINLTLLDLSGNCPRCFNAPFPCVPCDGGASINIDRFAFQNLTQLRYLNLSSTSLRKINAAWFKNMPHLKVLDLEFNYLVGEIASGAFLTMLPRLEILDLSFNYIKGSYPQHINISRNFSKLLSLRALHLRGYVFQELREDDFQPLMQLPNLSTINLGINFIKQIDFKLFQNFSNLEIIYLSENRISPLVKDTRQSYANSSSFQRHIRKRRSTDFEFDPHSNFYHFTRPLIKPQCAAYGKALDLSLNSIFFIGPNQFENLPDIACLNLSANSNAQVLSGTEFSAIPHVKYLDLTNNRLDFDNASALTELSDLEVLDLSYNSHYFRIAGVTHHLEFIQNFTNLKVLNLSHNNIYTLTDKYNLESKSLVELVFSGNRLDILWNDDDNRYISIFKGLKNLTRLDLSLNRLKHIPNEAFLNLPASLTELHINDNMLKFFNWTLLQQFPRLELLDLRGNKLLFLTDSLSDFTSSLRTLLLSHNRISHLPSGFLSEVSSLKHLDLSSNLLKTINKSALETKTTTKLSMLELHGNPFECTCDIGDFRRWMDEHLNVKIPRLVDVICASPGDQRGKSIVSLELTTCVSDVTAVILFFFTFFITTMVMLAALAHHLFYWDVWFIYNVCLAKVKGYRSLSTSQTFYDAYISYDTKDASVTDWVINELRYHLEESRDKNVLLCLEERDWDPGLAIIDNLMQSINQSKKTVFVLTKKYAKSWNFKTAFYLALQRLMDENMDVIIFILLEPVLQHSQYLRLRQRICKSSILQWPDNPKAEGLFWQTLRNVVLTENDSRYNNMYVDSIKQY
Experiment: HEK293-Blue-hTLR-8 cells assay (SEAP reporter, R848 stimulation)
Type: cell-based
Settings: HEK293-Blue-hTLR8 cells, R848 ligand, 20 hrs; read-out: HEK/hTLR8 IC50
Method: The following tests were carried out in order to determine the activity of the compounds of formula (I), (Ia) or (Ib) in HEK293-Blue-hTLR-7/8/9 cells assay.
HEK293-Blue-hTLR-8 Cells Assay:
A stable HEK293-Blue-hTLR-8 cell line was purchased from InvivoGen (Cat. #: hkb-htlr8, San Diego, California, USA). These cells were originally designed for studying the stimulation of human TLR8 by monitoring the activation of NF-κB. A SEAP (secreted embryonic alkaline phosphatase) reporter gene was placed under the control of the IFN-β minimal promoter fused to five NF-κB and AP-1-binding sites. The SEAP was induced by activating NF-κB and AP-1 via stimulating HEK-Blue hTLR8 cells with TLR8 ligands. Therefore the reporter expression was declined by TLR8 antagonist under the stimulation of a ligand, such as R848, for incubation of 20 hrs. The cell culture supernatant SEAP reporter activity was determined using QUANTI-Blue™ kit (Cat. #: rep-qb1, Invivogen, San Diego, Ca., USA) at a wavelength of 640 nm, a detection medium that turns purple or blue in the presence of alkaline phosphatase.
HEK293-Blue-hTLR8 cells were incubated at a density of 250,000˜450,000 cells/mL in a volume of 170 μL in a 96-well plate in Dulbecco's Modified Eagle's medium (DMEM) containing 4.5 g/L glucose, 50 U/mL penicillin, […], […], 2 mM L-glutamine, 10% (v/v) heat-inactivated fetal bovine serum with addition of 20 μL test compound in a serial dilution in the presence of final DMSO at 1% and 10 μL of 60 uM R848 in above DMEM, perform incubation under 37° C. in a CO2 incubator for 20 hrs. Then 20 μL of the supernatant from each well was incubated with 180 μL Quanti-blue substrate solution at 37° C. for 2 hrs and the absorbance was read at 620-655 nm using a spectrophotometer. The signaling pathway that TLR8 activation leads to downstream NF-κB activation has been widely accepted, and therefore similar reporter assay was modified for evaluating TLR8 antagonist.

SMILES | pIC50
C[C@@H]1CN(c2ccc(C#N)c3ncccc23)C[C@@H]2CCN(c3ccc(N4CCNCC4)nc3)CCN21 [Example 1, 5-[(4R,10aS)-4-methyl-8-(6-piperazin-1-yl-3-pyridyl)-1,3,4,6,7,9,10,10a-octahydropyrazino [1,2-d][1,4]diazepin-2-yl]quinoline-8-carbonitrile] | 7.21
C[C@@H]1CN(c2ccc(C#N)c3ncccc23)C[C@@H]2CCN(c3cnc(N4CCNCC4)nc3)CCN21 [Example 2, 5-[(4R,10aS)-4-methyl-8-(2-piperazin-1-ylpyrimidin-5-yl)-1,3,4,6,7,9,10,10a-octahydropyrazino[1,2-d][1,4]diazepin-2-yl]quinoline-8-carbonitrile] | 7.60
C[C@@H]1CN(c2ccc(C#N)c3ncccc23)C[C@@H]2CCN(c3ccc([C@H]4CNCCO4)cc3)CCN21 [Example 3, 5-[(4R,10aS)-4-methyl-8-[4-[(2S)-morpholin-2-yl]phenyl]-1,3,4,6,7,9,10,10a-octahydropyrazino[1,2-d][1,4]diazepin-2-yl]quinoline-8-carbonitrile] | 8.32
C[C@@H]1CN(c2ccc(C#N)c3ncccc23)C[C@@H]2CCN(c3cncc4c3CCNC4)CCN21 [Example 4, 5-[(4R,10aS)-4-methyl-8-(5,6,7,8-tetrahydro-2,7-naphthyridin-4-yl)-1,3,4,6,7,9,10,10a-octahydropyrazino[1,2-d][1,4]diazepin-2-yl]quinoline-8-carbonitrile] | 8.62
C[C@@H]1CN(c2ccc(C#N)c3ncccc23)C[C@@H]2CCN(c3ccc4c(n3)CNCC4)CCN21 [Example 5, 5-[(4R,10aS)-4-methyl-8-(5,6,7,8-tetrahydro-1,7-naphthyridin-2-yl)-1,3,4,6,7,9,10,10a-octahydropyrazino[1,2-d][1,4]diazepin-2-yl]quinoline-8-carbonitrile] | 8.41
C[C@@H]1CN(c2ccc(C#N)c3ncccc23)C[C@@H]2CCN(c3ccc4c(n3)CCNC4)CCN21 [Example 6, 5-[(4R,10aS)-4-methyl-8-(5,6,7,8-tetrahydro-1,6-naphthyridin-2-yl)-1,3,4,6,7,9,10,10a-octahydropyrazino[1,2-d][1,4]diazepin-2-yl]quinoline-8-carbonitrile] | > 8.49
C[C@@H]1CN(c2ccc(C#N)c3ncccc23)C[C@@H]2CCN(c3cc4c(cn3)CNCC4)CCN21 [Example 7, 5-[(4R,10aS)-4-methyl-8-(5,6,7,8-tetrahydro-2,7-naphthyridin-3-yl)-1,3,4,6,7,9,10,10a-octahydropyrazino[1,2-d][1,4]diazepin-2-yl]quinoline-8-carbonitrile] | 8.82
C[C@@H]1CN(c2ccc(C#N)c3ncccc23)C[C@@H]2CCN(Cc3cc4c(cn3)CNCC4)CCN21 [Example 8, 5-[(4R,10aS)-4-methyl-8-(5,6,7,8-tetrahydro-2,7-naphthyridin-3-ylmethyl)-1,3,4,6,7,9,10,10a-octahydropyrazino[1,2-d][1,4]diazepin-2-yl]quinoline-8-carbonitrile] | 8.07
C[C@@H]1CN(c2ccc(C#N)c3ncccc23)C[C@@H]2CCN(Cc3cc4c(cn3)CCNC4)CCN21 [Example 9, 5-[(4R,10aS)-4-methyl-8-(5,6,7,8-tetrahydro-2,6-naphthyridin-3-ylmethyl)-1,3,4,6,7,9,10,10a-octahydropyrazino[1,2-d][1,4]diazepin-2-yl]quinoline-8-carbonitrile] | 8.19
C[C@@H]1CN(c2ccc(C#N)c3ncccc23)C[C@@H]2CCN(Cc3cnc4c(c3)CNCC4)CCN21 [Example 10, 5-[(4R,10aS)-4-methyl-8-(5,6,7,8-tetrahydro-1,6-naphthyridin-3-ylmethyl)-1,3,4,6,7,9,10,10a-octahydropyrazino[1,2-d][1,4]diazepin-2-yl]quinoline-8-carbonitrile] | 8.28
C[C@@H]1CN(c2ccc(C#N)c3ncccc23)C[C@@H]2CCN(Cc3ccc4c(c3)CCNC4)CCN21 [Example 11, 5-[(4R,10aS)-4-methyl-8-(1,2,3,4-tetrahydroisoquinolin-6-ylmethyl)-1,3,4,6,7,9,10,10a-octahydropyrazino[1,2-d][1,4]diazepin-2-yl]quinoline-8-carbonitrile] | 8.38
C[C@@H]1CN(c2ccc(C#N)c3ncccc23)C[C@@H]2CCN(Cc3ccc4c(c3)CNCC4)CCN21 [Example 12, 5-[(4R,10aS)-4-methyl-8-(1,2,3,4-tetrahydroisoquinolin-7-ylmethyl)-1,3,4,6,7,9,10,10a-octahydropyrazino[1,2-d][1,4]diazepin-2-yl]quinoline-8-carbonitrile] | 8.57
C[C@@H]1CN(c2ccc(C#N)c3ncccc23)C[C@@H]2CCN(Cc3ncc(N4CCNCC4)cn3)CCN21 [Example 13, 5-[(4R,10aS)-4-methyl-8-[(5-piperazin-1-ylpyrimidin-2-yl)methyl]-1,3,4,6,7,9,10,10a-octahydropyrazino[1,2-d][1,4]diazepin-2-yl]quinoline-8-carbonitrile] | 7.50
C[C@@H]1CN(c2ccc(C#N)c3ncccc23)C[C@@H]2CCN(Cc3cnc(N4CCNCC4)nc3)CCN21 [Example 14, 5-[(4R,10aS)-4-methyl-8-[(2-piperazin-1-ylpyrimidin-5-yl)methyl]-1,3,4,6,7,9,10,10a-octahydropyrazino[1,2-d][1,4]diazepin-2-yl]quinoline-8-carbonitrile] | 8.31
C[C@@H]1CN(c2ccc(C#N)c3ncccc23)C[C@@H]2CCN(Cc3cnc(N4CCNCC4)cn3)CCN21 [Example 15, 5-[(4R,10aS)-4-methyl-8-[(5-piperazin-1-ylpyrazin-2-yl)methyl]-1,3,4,6,7,9,10,10a-octahydropyrazino[1,2-d][1,4]diazepin-2-yl]quinoline-8-carbonitrile] | 8.07
C[C@@H]1CN(c2ccc(C#N)c3ncccc23)C[C@@H]2CCN(Cc3cncc(N4CCNCC4)c3)CCN21 [Example 16, 5-[(4R,10aS)-4-methyl-8-[(5-piperazin-1-yl-3-pyridyl)methyl]-1,3,4,6,7,9,10,10a-octahydropyrazino[1,2-d][1,4]diazepin-2-yl]quinoline-8-carbonitrile] | 7.92
C[C@@H]1CN(c2ccc(C#N)c3ncccc23)C[C@@H]2CCN(Cc3ccc(N4CCNCC4)nc3)CCN21 [Example 17, 5-[(4R,10aS)-4-methyl-8-[(6-piperazin-1-yl-3-pyridyl)methyl]-1,3,4,6,7,9,10,10a-octahydropyrazino[1,2-d][1,4]diazepin-2-yl]quinoline-8-carbonitrile] | 8.47
C[C@@H]1CN(c2ccc(C#N)c3ncccc23)C[C@@H]2CCN(Cc3cccc(N4CCNCC4)n3)CCN21 [Example 18, 5-[(4R,10aS)-4-methyl-8-[(6-piperazin-1-yl-2-pyridyl)methyl]-1,3,4,6,7,9,10,10a-octahydropyrazino[1,2-d][1,4]diazepin-2-yl]quinoline-8-carbonitrile] | 8.09
C[C@@H]1CN(c2ccc(C#N)c3ncccc23)C[C@@H]2CCN(Cc3ccc(N4CCNCC4)cn3)CCN21 [Example 19, 5-[(4R,10aS)-4-methyl-8-[(5-piperazin-1-yl-2-pyridyl)methyl]-1,3,4,6,7,9,10,10a-octahydropyrazino[1,2-d][1,4]diazepin-2-yl]quinoline-8-carbonitrile] | 7.99
